Consider one compound from patent publication US11419843B2, “Small molecule BCL-2 functional converters as cancer therapeutics” (Oregon State University, priority 2016, dated 2022).

The subject of data set [1] is paclitaxel resistant H460 cells. The data set is described as follows: Zebrafish xenograft model. The data set is classed as in vivo, Zebrafish (Danio rerio). The following applies: 1 to 4 days post injection. On the procedure:
Total area signifies total h460 cell area in zebrafish.
Zebrafish (Danio rerio) were housed at the Sinnhuber Aquatic Research Laboratory at Oregon State University in accordance with Institutional Animal Care and Use Committee protocols. Adult 5D Tropical zebrafish were maintained under standard laboratory conditions of 28±1° C. on a 14 hr light/10 hr dark photoperiod in fish water consisting of reverse osmosis water supplemented with a commercially available salt solution (0.6%, Instant Ocean, UnitedPet Group, Inc., Blacksburg, Va., USA). Collected eggs were staged according to Kimmel et al. At 24 hours post fertilization (hpf), zebrafish embryos were maintained in E3 media with phenylthiourea (0.003%, Sigma, USA).
For transplantations, H460 cells were labeled with a CM-DiI dye (Thermo Fisher Sci.) according to the manufacturer's protocol and suspended to a concentration of 2×10^7 cells/mL. […]
For imaging, zebrafish xenografts were anesthetized by emersion in 0.2 mg/mL Tricaine E3 media and imbedded in 0.8% (w/v) low melting point agarose on a glass bottom 96-well plate. […] H460 cancer growth was analyzed using Fiji (Fiji is Just Imagej) software. […] Cancer area was calculated by creating a binary mask from thresholds with the Otsu algorithm and calculating the total area of the resulting segmented objects. […]

The conditions of data set [2]: mice; cited from earlier work.
The conditions of data set [3]: humans; cited from earlier work.

Where two headings read alike, the source gives them in different places.

By half-life is commonly meant the time needed for the level to fall by half in the phase considered. In the case of `CN(Cc1cnc2nc(N)nc(N)c2n1)c1ccc(C(=O)N[C@@H](CCC(=O)O)C(=O)O)cc1` [MTX, (2S)-2-[[4-[(2,4 diaminopteridin-6-yl)methylmethylamino]benzoyl]amino] pentanedioc acid], the “Growth of paclitaxel resistant H460 cells in zebrafish” value in data set [1] is on record as “reduction in paclitaxel resistant H460 growth in vivo”. Besides, the half-life in data set [2] is 0.5 h; in data set [3], 7 to 10 h.
